From the NIST ThermoML archive (doi:10.1016/j.jct.2005.08.018) come the findings set out here.

For series [1] the following is noted: 298.15 K; 101 kPa; Liquid.
Series [2] can be described thus: mn = molality of the nth substance listed, in mol/kg. The following applies: 298.15 K, 101 kPa, Liquid.

± gives the expanded uncertainty stated by the source.

Consider `c1ccccc1` [benzene], for which, in series [1], the mass density stood at 873.71 ± 0.78 kg/m3 and the speed of sound turned out to be 1298.2 ± 2.8 m/s.

As for `c1ccccc1` [benzene] + CCCC[N+](CCCC)(CCCC)CCCC.[Br-], in series [2] (m2 = 0), the mass density stood at 873.71 ± 0.78 kg/m3 and the speed of sound is reported as 1298.2 ± 2.8 m/s.

As for `CCCC[N+](CCCC)(CCCC)CCCC.[Br-]` [tetrabutylammonium bromide] + c1ccccc1, the mass density in series [2] (m1 = 0.0154) came to 874.64 ± 0.78 kg/m3; in series [2] (m1 = 0.0485), 876.48 ± 0.78 kg/m3; in series [2] (m1 = 0.0662), 877.4 ± 0.77 kg/m3; in series [2] (m1 = 0.0827) it was 878.36 ± 0.77 kg/m3; in series [2] (m1 = 0.1724) it was 883.19 ± 0.76 kg/m3; in series [2] (m1 = 0.3622), 893.1 ± 0.74 kg/m3. The mass density in series [2] (m1 = 0.5773) is 903.19 ± 0.72 kg/m3; in series [2] (m1 = 0.8062) it was 913.08 ± 0.7 kg/m3. Further, the speed of sound in series [2] (m1 = 0.0154) is reported as 1298.6 ± 2.8 m/s; in series [2] (m1 = 0.0485) it was 1299.4 ± 2.8 m/s; in series [2] (m1 = 0.0662), 1300.6 ± 2.8 m/s; in series [2] (m1 = 0.0827), 1300.8 ± 2.8 m/s; in series [2] (m1 = 0.1724), 1301.4 ± 2.8 m/s; in series [2] (m1 = 0.3622) it was 1310.1 ± 2.8 m/s. Also, the speed of sound in series [2] (m1 = 0.5773) is 1316.4 ± 2.8 m/s; in series [2] (m1 = 0.8062) it was 1324.6 ± 2.9 m/s.

For `ClC(Cl)(Cl)Cl` [tetrachloromethane], in series [1], the mass density was found to be 1584.35 ± 2.2 kg/m3 and the speed of sound is reported as 921.7 ± 2.4 m/s.

Consider `ClC(Cl)(Cl)Cl` [tetrachloromethane] + CCCC[N+](CCCC)(CCCC)CCCC.[Br-], for which the mass density in series [2] (m2 = 0) was found to be 1584.35 ± 2.2 kg/m3; in series [2] (m2 = 0.0289), 1578.53 ± 2.2 kg/m3; in series [2] (m2 = 0.0459), 1575.17 ± 2.2 kg/m3; in series [2] (m2 = 0.0609), 1572.21 ± 2.2 kg/m3; in series [2] (m2 = 0.0759), 1569.3 ± 2.2 kg/m3; in series [2] (m2 = 0.1041) it was 1563.88 ± 2.2 kg/m3. The mass density is recorded as 1520.79 ± 2 kg/m3 in series [2] (m2 = 0.3475), 1488.36 ± 1.9 kg/m3 in series [2] (m2 = 0.5626) and 1456.84 ± 1.8 kg/m3 in series [2] (m2 = 0.8165). Also, the speed of sound in series [2] (m2 = 0) is 921.7 ± 2.4 m/s; in series [2] (m2 = 0.0289) it was 926.4 ± 2.4 m/s; in series [2] (m2 = 0.0459) it was 929.4 ± 2.4 m/s; in series [2] (m2 = 0.0609) it was 931.7 ± 2.4 m/s; in series [2] (m2 = 0.0759) it was 933.7 ± 2.4 m/s; in series [2] (m2 = 0.1041), 939.5 ± 2.4 m/s. Besides, the speed of sound turned out to be 982 ± 2.4 m/s in series [2] (m2 = 0.3475), 1017.5 ± 2.5 m/s in series [2] (m2 = 0.5626) and 1057.6 ± 2.5 m/s in series [2] (m2 = 0.8165).
